In paper PMC4170002 (Journal of immunology (Baltimore, Md. : 1950), 2014):
“And” between values parts separate entries of the source, which are not always exact repeats. Equal values may be shown once. “Also recorded” adds a separate entry of the source.

How the values were obtained:
TYK2 [1] = biological target: T1, TYK2 (Homo sapiens, UniProt P29597); assay: 33P-ATP kinase assay, TYK2; type: biochemical; conditions: read-out: IC50 TYK2; 33P-ATP assay, 10 μM ATP
TYK2 [2] = biological target: T1, TYK2; assay: TR-FRET STAT3 phosphorylation assay, TYK2; conditions: read-out: IC50 TYK2, 10 μM ATP, GFP-STAT3
JAK3 [3] = biological target: T2, JAK3 (Homo sapiens, UniProt P52333); assay: IL-2-induced pSTAT5 in PBMCs; type: cell-based; conditions: read-out: IC50 JAK3, pSTAT (primary cells), IL-2, pSTAT5
T2 sequence (P52333 1-1124): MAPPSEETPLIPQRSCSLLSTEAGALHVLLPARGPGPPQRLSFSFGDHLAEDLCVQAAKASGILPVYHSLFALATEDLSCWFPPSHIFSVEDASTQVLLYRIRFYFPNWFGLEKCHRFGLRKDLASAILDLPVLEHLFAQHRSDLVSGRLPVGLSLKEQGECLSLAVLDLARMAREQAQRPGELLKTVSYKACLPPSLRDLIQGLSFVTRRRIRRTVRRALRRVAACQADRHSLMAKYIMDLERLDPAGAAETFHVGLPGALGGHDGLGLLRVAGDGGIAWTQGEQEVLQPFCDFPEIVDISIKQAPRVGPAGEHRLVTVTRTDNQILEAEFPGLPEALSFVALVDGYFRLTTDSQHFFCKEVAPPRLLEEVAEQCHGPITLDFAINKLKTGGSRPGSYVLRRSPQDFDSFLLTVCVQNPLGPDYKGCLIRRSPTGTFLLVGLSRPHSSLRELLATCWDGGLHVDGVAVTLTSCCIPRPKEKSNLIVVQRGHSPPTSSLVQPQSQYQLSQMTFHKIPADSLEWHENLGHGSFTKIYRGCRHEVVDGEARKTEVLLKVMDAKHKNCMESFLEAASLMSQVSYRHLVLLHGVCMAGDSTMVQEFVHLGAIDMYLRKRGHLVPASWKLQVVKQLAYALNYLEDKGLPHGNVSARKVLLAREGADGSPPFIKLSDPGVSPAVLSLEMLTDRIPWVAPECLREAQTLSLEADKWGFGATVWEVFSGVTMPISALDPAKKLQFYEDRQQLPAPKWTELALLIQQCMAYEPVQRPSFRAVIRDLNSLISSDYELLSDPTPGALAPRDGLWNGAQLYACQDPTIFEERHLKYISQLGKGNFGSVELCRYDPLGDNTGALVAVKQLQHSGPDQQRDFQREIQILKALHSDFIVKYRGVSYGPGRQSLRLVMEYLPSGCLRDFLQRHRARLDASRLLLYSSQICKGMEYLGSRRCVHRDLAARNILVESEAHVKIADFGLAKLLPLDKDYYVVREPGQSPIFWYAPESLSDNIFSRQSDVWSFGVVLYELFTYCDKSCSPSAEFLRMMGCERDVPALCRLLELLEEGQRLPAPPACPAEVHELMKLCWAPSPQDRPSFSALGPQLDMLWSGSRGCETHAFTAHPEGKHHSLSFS

TYK2 [4] = biological target: T1, TYK2; assay: IL-12-induced pSTAT4 in NK-92 cells; type: cell-based; conditions: read-out: IC50 TYK2, pSTAT (cell lines), IL-12, pSTAT4
JAK1 [5] = biological target: T3, JAK1 (Homo sapiens, UniProt P23458); assay: IL-6-induced pSTAT3 in TF-1 cells; type: cell-based; conditions: read-out: IC50 JAK1, pSTAT (cell lines), IL-6, pSTAT3
JAK1 [6] = biological target: T3, JAK1; assay: 33P-ATP kinase assay, JAK1; type: biochemical; conditions: read-out: IC50 JAK1; 33P-ATP assay, 10 μM ATP
Caco-2 permeability = type: in vitro ADME; conditions: 5 μM, pH 7.4
[7] = In vivo pharmacokinetics in CD-1 mice; set-up: species or system mouse; conditions: for Cmax or Co: CD-1 mice
IL-12 signaling in vivo = assay: IL-12/IL-18-induced serum IFN-γ in vivo; set-up: species or system mouse; conditions: 60 mg/kg, 30 minutes prior to IL-12/IL-18, vs vehicle
IFN-α signaling = assay: HEK-BLUE IFN-α/β SEAP reporter assay; type: cell-based; conditions: HEK-BLUE IFN-α/β cells, 200 U IFN-α, 24 hours
IL-12 signaling = assay: IL-12-induced IFN-γ production in PBMCs; type: cell-based; conditions: human PBMCs, 10 ng/mL IL-12, 24 hours
JAK1 [8] = biological target: T3, JAK1; assay: TR-FRET STAT3 phosphorylation assay, JAK1; conditions: read-out: IC50 JAK1, 10 μM ATP, GFP-STAT3
non-JAK kinases = assay: Kinome analysis; type: biochemical; conditions: 100 nM
IL-22 signaling [9] = assay: IL-22-induced pSTAT3 in HT-29 cells; type: cell-based, human
[10] = Mouse liver microsome stability; type: in vitro ADME; conditions: 0.5 μM
CD4+ T cells = assay: CD4+ T cell proliferation; type: cell-based, mouse; conditions: anti-CD28/anti-TCR, 4 days
JAK3 [11] = biological target: T2, JAK3; assay: TR-FRET STAT3 phosphorylation assay, JAK3; conditions: read-out: IC50 JAK3, 10 μM ATP, GFP-STAT3
TYK2 [12] = biological target: T1, TYK2; assay: IL-12-induced pSTAT4 in primary CD4+ cells; type: cell-based; conditions: read-out: IC50 TYK2, pSTAT (primary cells), IL-12, pSTAT4
Splenic CD4+ cells = assay: T helper cell development; type: cell-based, mouse; conditions: 1 μM, 4 days; for IFN-γ production in Th1 cells: Th1 conditions; for IL-4 in Th2 cultures: Th2 conditions; for Foxp3+ cells under Th17-skewing conditions / percent of IL-17+ cells: Th17-skewing conditions; for development of iTregs: iTreg conditions
JAK3 [13] = biological target: T2, JAK3; assay: 33P-ATP kinase assay, JAK3; type: biochemical; conditions: read-out: IC50 JAK3; 33P-ATP assay, 10 μM ATP
[14] = test system: imiquimod-induced dermatitis; assay: Imiquimod-induced psoriasis-like dermatitis; type: in vivo
JAK1 [15] = biological target: T3, JAK1; assay: IL-6-induced pSTAT3 in primary CD4+ cells; type: cell-based; conditions: read-out: IC50 JAK1, pSTAT (primary cells), IL-6, pSTAT3
IL-22 signaling [16] = assay: IL-22-induced Serum Amyloid A; type: in vivo, mouse; conditions: 50 mg/kg p.o., C57BL/6 mice, 10 μg IL-22, 6 hours, vs vehicle
[17] = 50 mg/kg p.o. twice daily, back skin
[18] = 50 mg/kg, qPCR, vs wild type and TYK2 mutant mice

T1 sequence (P29597 whole entry): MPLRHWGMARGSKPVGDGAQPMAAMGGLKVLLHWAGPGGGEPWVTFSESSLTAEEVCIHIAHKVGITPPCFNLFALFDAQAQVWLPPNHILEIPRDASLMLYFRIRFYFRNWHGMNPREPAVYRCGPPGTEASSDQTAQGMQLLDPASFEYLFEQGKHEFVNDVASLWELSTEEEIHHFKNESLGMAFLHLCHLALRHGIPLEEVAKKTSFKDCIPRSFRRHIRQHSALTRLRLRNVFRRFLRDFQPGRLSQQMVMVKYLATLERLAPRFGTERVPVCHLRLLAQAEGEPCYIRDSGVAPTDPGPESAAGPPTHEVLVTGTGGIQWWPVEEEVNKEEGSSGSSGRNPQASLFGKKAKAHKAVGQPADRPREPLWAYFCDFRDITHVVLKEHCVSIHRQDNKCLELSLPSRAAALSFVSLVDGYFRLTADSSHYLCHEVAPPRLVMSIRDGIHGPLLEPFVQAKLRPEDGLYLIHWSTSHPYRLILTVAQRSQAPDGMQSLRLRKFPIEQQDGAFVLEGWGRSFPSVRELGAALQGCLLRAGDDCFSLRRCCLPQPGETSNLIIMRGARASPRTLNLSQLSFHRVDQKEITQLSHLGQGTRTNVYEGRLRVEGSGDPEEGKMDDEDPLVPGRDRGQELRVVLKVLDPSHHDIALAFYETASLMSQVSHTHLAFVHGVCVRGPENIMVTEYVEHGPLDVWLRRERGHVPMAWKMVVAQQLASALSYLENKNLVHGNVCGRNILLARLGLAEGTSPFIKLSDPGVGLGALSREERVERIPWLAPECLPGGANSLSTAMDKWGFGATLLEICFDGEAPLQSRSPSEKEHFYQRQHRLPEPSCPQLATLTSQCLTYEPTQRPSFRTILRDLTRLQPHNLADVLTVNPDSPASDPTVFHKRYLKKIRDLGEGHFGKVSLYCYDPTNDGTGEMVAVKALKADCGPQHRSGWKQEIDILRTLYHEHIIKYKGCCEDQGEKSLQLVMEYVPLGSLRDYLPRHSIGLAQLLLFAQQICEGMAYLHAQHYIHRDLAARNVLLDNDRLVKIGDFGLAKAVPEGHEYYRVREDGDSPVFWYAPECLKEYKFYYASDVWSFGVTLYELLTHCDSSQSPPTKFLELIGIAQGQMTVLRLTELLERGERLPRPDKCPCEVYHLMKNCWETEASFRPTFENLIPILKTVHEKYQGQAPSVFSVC
T3 sequence (P23458 whole entry): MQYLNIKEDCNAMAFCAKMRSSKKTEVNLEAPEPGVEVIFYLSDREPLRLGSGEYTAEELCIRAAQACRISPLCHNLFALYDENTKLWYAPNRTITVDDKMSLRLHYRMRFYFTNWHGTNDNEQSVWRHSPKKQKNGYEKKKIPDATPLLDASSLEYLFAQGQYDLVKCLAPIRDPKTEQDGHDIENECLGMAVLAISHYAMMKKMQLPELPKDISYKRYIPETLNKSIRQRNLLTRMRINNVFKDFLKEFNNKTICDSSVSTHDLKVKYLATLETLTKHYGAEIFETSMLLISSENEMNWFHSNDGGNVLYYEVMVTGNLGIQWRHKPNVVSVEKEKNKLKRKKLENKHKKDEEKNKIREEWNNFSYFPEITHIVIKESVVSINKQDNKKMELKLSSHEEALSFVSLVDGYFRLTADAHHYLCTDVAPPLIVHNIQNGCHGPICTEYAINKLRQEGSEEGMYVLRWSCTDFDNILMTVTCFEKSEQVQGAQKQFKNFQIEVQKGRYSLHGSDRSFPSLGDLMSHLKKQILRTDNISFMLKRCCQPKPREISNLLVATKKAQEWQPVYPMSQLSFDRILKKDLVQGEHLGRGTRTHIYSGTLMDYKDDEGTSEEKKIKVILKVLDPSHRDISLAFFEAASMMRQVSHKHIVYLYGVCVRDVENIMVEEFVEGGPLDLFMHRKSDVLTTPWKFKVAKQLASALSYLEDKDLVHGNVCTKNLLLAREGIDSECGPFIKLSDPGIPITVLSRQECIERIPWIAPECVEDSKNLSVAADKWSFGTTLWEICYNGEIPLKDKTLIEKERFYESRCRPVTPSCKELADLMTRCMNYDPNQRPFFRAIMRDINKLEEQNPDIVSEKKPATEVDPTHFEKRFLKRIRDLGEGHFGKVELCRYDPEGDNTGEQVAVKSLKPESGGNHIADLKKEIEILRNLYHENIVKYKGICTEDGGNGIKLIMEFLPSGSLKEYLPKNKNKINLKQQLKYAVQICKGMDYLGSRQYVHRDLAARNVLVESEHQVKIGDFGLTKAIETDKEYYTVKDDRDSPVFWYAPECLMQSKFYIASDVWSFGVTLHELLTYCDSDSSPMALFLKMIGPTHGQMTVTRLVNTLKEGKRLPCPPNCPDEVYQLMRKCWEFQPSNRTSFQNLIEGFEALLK

NC(=O)c1nc(-c2c(F)cccc2Cl)oc1Nc1ccc(C(=O)N2CCOCC2)cc1 [SAR-20347]
IC50 (TYK2 [1]): 0.6 ± 0.1 nM | IC50 (TYK2 [2]): 13 ± 3 nM | IC50 (JAK3 [3]): 1610 nM | IC50 (TYK2 [4]): 126 nM | IC50 (JAK1 [5]): 345 nM | IC50 (JAK1 [6]): 23 ± 19 nM | Caco-2 AB: BA (Caco-2 permeability): 1.3 | Caco-2 permeability (Caco-2 permeability): good permeability | AUC0-8h ([7]; 1 mg/kg (i.v.)): 305 ng/h/mL | Cl ([7]; 1 mg/kg (i.v.)): 52 mL/min/kg and 52.1 mL/min/kg | T1/2 ([7]; 1 mg/kg (i.v.)): 162 min | Cmax or Co ([7]; 1 mg/kg (i.v.)): 433 ng/mL | AUC0-8h ([7]; 10 mg/kg (p.o.)): 2131 ng/h/mL | F ([7]; 10 mg/kg (p.o.)): 69.8% | T1/2 ([7]; 10 mg/kg (p.o.)): 144 min | Tmax ([7]; 10 mg/kg (p.o.)): 24 min | Cmax or Co ([7]; 10 mg/kg (p.o.)): 1343 ng/mL | AUC0-8h ([7]; 50 mg/kg (p.o.)): 18740 ng/h/mL | T1/2 ([7]; 50 mg/kg (p.o.)): 168 min | Tmax ([7]; 50 mg/kg (p.o.)): 30 min | Cmax or Co ([7]; 50 mg/kg (p.o.)): 6273 ng/mL | maximum serum concentration (Tmax) ([7]; mice): 30 min | inhibition of production of IFN-γ in the serum (IL-12 signaling in vivo): 91% | inhibition of SEAP production (IFN-α signaling): dose-dependently inhibited the production of SEAP | inhibition of IL-12 induced IFN-γ production (IL-12 signaling): dose-dependent inhibition of IFN-γ production; also recorded: complete inhibition | IC50 (JAK1 [8]): 59 ± 43 nM | inhibitory activity towards non-JAK kinases (non-JAK kinases): comparable to the previously established values for tofacitinib and ruxolitinib | inhibition of STAT3 phosphorylation (IL-22 signaling [9]; 10 μM): 94% | IC50 (IL-22 signaling [9]; read-out: IC50 IL-22-induced pSTAT3, 10 ng/mL IL-22, 15 minutes): 148 nM | clearance rate in mouse liver microsomes [10]: 26 µL/min/mg | half-life in mouse liver microsomes [10]: 52.7 min | CD4+ T cell proliferation (CD4+ T cells): inhibited proliferation to a comparable extent | doses significantly decreasing proliferation compared to 0 μM (DMSO) (CD4+ T cells; two-way ANOVA): ≥ 0.315 µM | IC50 (JAK3 [11]): 1440 ± 630 nM | IC50 (TYK2 [12]): 107 nM | IFN-γ production in Th1 cells (Splenic CD4+ cells): potently blocked IFN-γ production | IL-4 in Th2 cultures (Splenic CD4+ cells): capable of reducing IL-4 | Foxp3+ cells under Th17-skewing conditions (Splenic CD4+ cells): dramatic increase in Foxp3+ cells | percent of IL-17+ cells (Splenic CD4+ cells): reduces the percent of IL-17+cells | development of iTregs (Splenic CD4+ cells): did not alter the development of iTregs | IC50 (JAK3 [13]): 41 ± 11 nM | gross toxicity ([14]; 50 mg/kg p.o. twice daily): no gross toxicity | Ki67 staining [14, 17]: significantly reduced | histological score [14, 17]: significantly reduced | keratinocyte cell numbers [14, 17]: significantly reduced | scaling and redness (clinical score) ([14]; 50 mg/kg p.o. twice daily, vs TYK2 mutant or vehicle-treated wild type mice): markedly reduced scaling and redness | IL-2 expression levels in the skin ([14]; 50 mg/kg, qPCR): did not affect | IL-10 expression levels in the skin ([14]; 50 mg/kg, qPCR): did not affect | S100A8 gene expression in the skin ([14]; 50 mg/kg, qPCR): significantly decreased | S100A9 gene expression in the skin ([14]; 50 mg/kg, qPCR): significantly decreased | defensin β1 gene expression in the skin ([14]; 50 mg/kg, qPCR): significantly decreased | IL-6 mRNA expression in the skin [14, 18]: significantly reduced expression | IL-17 mRNA expression in the skin [14, 18]: significantly reduced expression | IL-20 mRNA expression in the skin [14, 18]: significantly reduced expression | IL-22 mRNA expression in the skin [14, 18]: significantly reduced expression | IL-23 mRNA expression in the skin [14, 18]: significantly reduced expression | TNF mRNA expression in the skin [14, 18]: significantly reduced expression | IL-17 production (average signal intensity) ([14]; 50 mg/kg, skin IHC): significantly reduced IL-17 production | Vγ3 expression (average signal intensity) ([14]; 50 mg/kg, skin IHC): significantly lower | number of CD4+ cells in skin ([14]; 50 mg/kg, skin IHC): not affected | IC50 (JAK1 [15]): 423 nM | decrease of SAA levels (IL-22 signaling [16]): 45%

C[C@@H]1CCN(C(=O)CC#N)C[C@@H]1N(C)c1ncnc2[nH]ccc12 [Tofacitinib, reference compound]
IFN-γ production in Th1 cells (Splenic CD4+ cells): potently blocked IFN-γ production | IL-4 in Th2 cultures (Splenic CD4+ cells): capable of reducing IL-4 | Foxp3+ cells under Th17-skewing conditions (Splenic CD4+ cells): no effect on Th17 skewing or change in the number of Foxp3+ cells | percent of IL-17+ cells (Splenic CD4+ cells): no effect on Th17 skewing | development of iTregs (Splenic CD4+ cells): significantly reduced iTreg development
